According to patent publication EP0185961A2, “1-Phenyl-imidazole-5-carboxylic acid derivatives, process for their preparation and their use as growth regulators” (HOECHST AKTIENGESELLSCHAFT, priority 1984, dated 1986):
Like-named read-outs stand apart in the source and are kept apart here.

Tests used:
[1] = system: Sojabohnen; settings: in vivo
Text: (§4) Etwa 10 cm große Sojabohnen werden mit den Wirkstoffzubereitungen tropfnaß bespritzt. Nach 3 Wochen wird bonitiert.
(§5) Die Wuchshemmung wird als prozentualer Wert ermittelt, wobei 100% den Stillstand des Wachstums und 0% ein Wachstum entsprechend dem der unbehandelten Kontrollpflanzen bedeuten.

[2] = system: Gerste; assay: Growth inhibition in cereals, greenhouse tray test, sprayed at 3-leaf stage; assay type: in vivo; settings: % of growth increment of untreated controls; for pest or weed control at 1250 g/ha / pest or weed control at 2500 g/ha: read-out: Wuchsshemmung in % bei Gerste
Text: (§1) In Schalenversuchen im Gewächshaus werden junge Getreidepflanzen (Weizen, Gerste, Roggen) im 3-Blattstadium mit erfindungsgemäßen Verbindungen in verschiedenen Wirkstoffkonzentrationen (kg/ha) tropfnaß gespritzt.
(§2) Es wird außerdem die phytotoxische Wirkung der Verbindung beobachtet.

[3] = system: Reispflanzen; settings: in vivo
Text: (§6) Reispflanzen werden in Kleinparzellen (2 m x 2 m) angezogen und im Stadium der maximalen Bestockung mit erfindungsgemäßen Verbindungen behandelt. Die Substanzen werden sowohl durch Spritzung appliziert als auch in das Wasser gegeben.
(§7) 3 Wochen nach der Behandlung wird bei allen Pflanzen der Zuwachs gemessen und die Wuchshemmung in % des Zuwachses der Kontrollpflanzen berechnet. Es wird außerdem auf eine mögliche phytotoxische Wirkung der Verbindungen geachtet.
as §5

[4] = system: Getreidepflanzen (Weizen, Gerste, Roggen); assay: Phytotoxic effect observed in the cereal growth inhibition test; assay type: in vivo; settings: cereals; one cell for 2,5 and 1,25 kg/ha
Text: as §1, §2

[5] = system: Reispflanzen; assay: Growth inhibition in paddy rice, small plots; settings: for pest or weed control at 620 g/ha / pest or weed control at 1250 g/ha: Oryza sativa, 504 h, read-out: Wuchsshemmung (%); for Phytotox. Wirkung: paddy rice, one cell for 1,25 and 0,62 kg/ha
Text: as §6, §7, §5

[6] = system: Sojabohnen; assay: Growth inhibition in soybeans; settings: for pest or weed control at 2500 g/ha: Glycine max, 504 h, read-out: Wuchsshemmung (%); for Phytotox. Wirkung: soybeans, 2,5 kg/ha
Text: as §4, §5

[7] = system: Roggen; assay: Growth inhibition in cereals, greenhouse tray test, sprayed at 3-leaf stage; assay type: in vivo; settings: % of growth increment of untreated controls; for pest or weed control at 1250 g/ha / pest or weed control at 2500 g/ha: read-out: Wuchsshemmung in % bei Roggen
Text: (§3) In Schalenversuchen im Gewächshaus werden junge Getreidepflanzen (Weizen, Gerste, Roggen) im 3-Blattstadium mit erfindungsgemäßen Verbindungen in verschiedenen Wirkstoffkonzentrationen (kg/ha) tropfnaß gespritzt. […]

[8] = system: Weizen; assay: as above; assay type: in vivo; settings: % of growth increment of untreated controls (100% = growth standstill); for pest or weed control at 1250 g/ha / pest or weed control at 2500 g/ha: read-out: Wuchsshemmung in % bei Weizen
Text: as §3

Compound	Phytotox. Wirkung [1]	pest or weed control at 1250 g/ha ([2]; 1,25 kg/ha) [%]	pest or weed control at 2500 g/ha ([2]; 2,5 kg/ha) [%]	Phytotox. Wirkung [3]	Phytotox. Wirkung [4]	pest or weed control at 620 g/ha [5] [%]	pest or weed control at 1250 g/ha [5] [%]	pest or weed control at 2500 g/ha [6] [%]	pest or weed control at 1250 g/ha ([7]; 1,25 kg/ha) [%]	pest or weed control at 2500 g/ha ([7]; 2,5 kg/ha) [%]	pest or weed control at 1250 g/ha ([8]; 1,25 kg/ha) [%]	pest or weed control at 2500 g/ha ([8]; 2,5 kg/ha) [%]	Wuchsshemmung in % bei Gerste ([2]; 1,25 kg/ha) [%]	Wuchsshemmung in % bei Gerste ([2]; 2,5 kg/ha) [%]	Wuchsshemmung in % bei Roggen ([7]; 1,25 kg/ha) [%]	Wuchsshemmung in % bei Roggen ([7]; 2,5 kg/ha) [%]	Wuchsshemmung in % bei Weizen ([8]; 1,25 kg/ha) [%]	Wuchsshemmung in % bei Weizen ([8]; 2,5 kg/ha) [%]	Phytotox. Wirkung [5]	Phytotox. Wirkung [6]
CCc1cccc(CC)c1-n1cncc1C(=O)ON=C(C)C1CC1 [Beispiel 45]	keine Schäden	15	32	keine Schäden	keine Schäden	13	19	18	15	22	11	19								
CCc1cccc(CC)c1-n1cncc1C(=O)NS(=O)(=O)c1ccccc1Cl [Beispiel 103]	keine Schäden	19	29	keine Schäden	keine Schäden	15	21	22	16	27	16	23								
CCc1cccc(CC)c1-n1cncc1C(N)=NO [Beispiel 8, 1-(2,6-Diethylphenyl)-imidazol-5-carboxamidoxim]	keine Schäden	18	34	keine Schäden	keine Schäden	12	22	21	17	25	12	22								
CCc1cccc(CC)c1-n1cncc1-c1nnn[nH]1 [Beispiel 5, 1-(2,6-Diethylphenyl)-5-(5-tetrazolyl)-imidazol]	keine Schäden	13	30	keine Schäden	keine Schäden	11	19	18	9	21	9	18								
CCc1cccc(CC)c1-n1cncc1C(=O)NCC#N [Beispiel 57]	keine Schäden	18	31	keine Schäden	keine Schäden	13	20	18	17	23	12	23								
CCc1cccc(CC)c1-n1cncc1C1=NC(C)(C)CO1 [Beispiel 6, 1-(2,6-Diethylphenyl)-5-(4,4-dimethyl-2-oxazolin-2-yl)-imidazol]	keine Schäden	13	25	keine Schäden	keine Schäden	11	18	19	9	17	8	17								
CCc1cccc(CC)c1-n1cncc1C(=O)OC1CCCCC1 [Beispiel 36]	keine Schäden	17	33	keine Schäden	keine Schäden	14	21	19	13	23	10	19								
CCc1cccc(CC)c1-n1cncc1C(=O)NO [Beispiel 68]	keine Schäden	21	34	keine Schäden	keine Schäden	18	25	26	21	27	20	24								
2-Chlorethyltriethylammoniumchlorid [reference compound]					keine Schäden								0	8	0	10	23	27		
C#CCOC(=O)c1cncn1-c1c(CC)cccc1CC [Beispiel 37]		12	25		keine Schäden	11	19	17	7	19	8	15							keine Schäden	keine Schäden
CCc1cccc(CC)c1-n1cncc1C=NO [Beispiel 14, 1-(2,6-Diethylphenyl)-5-hydroximinomethyl-imidazol]		16	32		keine Schäden	13	21	20	13	24	11	19							keine Schäden	keine Schäden
CCc1cccc(CC)c1-n1cncc1C(=O)NN [Beispiel 65]	keine Schäden	19	29	keine Schäden	keine Schäden	14	21	17	18	24	14	21								
CCc1cccc(CC)c1-n1cncc1C(=O)ON=C(C)C(C)C [Beispiel 42]	keine Schäden	16	31	keine Schäden	keine Schäden	14	19	19	14	19	12	21								
CCc1cccc(CC)c1-n1cncc1COCc1ccccc1C [Beispiel 95]	keine Schäden	17	25	keine Schäden	keine Schäden	14	18	20	15	22	14	19								
CCc1cccc(CC)c1-n1cncc1C(=O)NN(C)C [Beispiel 66]	keine Schäden	19	31	keine Schäden	keine Schäden	12	21	18	18	25	14	22								
CCc1cccc(CC)c1-n1cncc1C(=O)OCSC [Beispiel 4, Methylthiomethyl-1-(2,6-diethylphenyl)-imidazol-5-carboxylat]		17	34		keine Schäden	16	21	21	20	26	14	21							keine Schäden	keine Schäden
